Measurements published in ChEMBL document CHEMBL1955866, “New cyclic peptides with osteoblastic proliferative activity from Dianthus superbus” (Bioorg Med Chem Lett, 2012).
Where a SMILES comes first, the peptide text is derived from it.

Columns and labels:
Format in all cases: functional, cell-based
[1] = Osteoblastic proliferative activity in […] MC3T3-E1 cells at 10^-2 mM by MTT assay
[2] = Osteoblastic proliferative activity in […] MC3T3-E1 cells at 10^-3 mM by MTT assay
[3] = Osteoblastic proliferative activity in rat MC3T3-E1 cells at 10^-4 mM by MTT assay
[4] = Osteoblastic proliferative activity in […] MC3T3-E1 cells at 10^-5 mM by MTT assay
[5] = Osteoblastic proliferative activity in […] MC3T3-E1 cells at 10^-6 mM by MTT assay

SMILES	Activity [1] [%]	Activity [2] [%]	Activity [3] [%]	Activity [4] [%]	Activity [5] [%]
[F-].[Na+]	46.2				
CC(C)C[C@@H]1NC(=O)[C@H]([C@@H](C)O)NC(=O)[C@H](CC(C)C)NC(=O)[C@@H]2CCCN2C(=O)CNC(=O)[C@H](Cc2ccccc2)NC1=O (cyclo(FGPLTL))	13.7	3.9	21.7	38.2	25.4
CC[C@H](C)[C@@H]1NC(=O)[C@H]([C@@H](C)O)NC(=O)[C@H](C(C)C)NC(=O)[C@@H]2CCCN2C(=O)CNC(=O)[C@H](Cc2ccccc2)NC1=O (cyclo(FGPVTI))	22.5	17	26.3	33.9	17.2
